target: human NK3 receptor (Homo sapiens (Human), UniProt P29371); assay: [3H]SR142801 competition binding assay; conditions: membranes from HEK293 cells transiently expressing recombinant human NK3 receptor; [3H]SR142801 radioligand; read-out: Ki (uM) hNK3
Procedure: [^3H]SR142801 Competition Binding Assay
hNK3 receptor binding experiment were performed using [^3H]SR142801 (Catalog No. TRK1035, specific activity: 74.0 Ci/mmol, Amersham, GE Healthcare UK limited, Buckinghamshire, UK) and membrane isolated from HEK293 cells transiently expressing recombinant human NK3 receptor. After thawing, the membrane homogenates were centrifuged at 48,000×g for 10 min at 4° C., the pellets were resuspended in the 50 mM Tris-HCl, 4 mM MnCl2, 1 μM phosphoramidon, 0.1% BSA binding buffer at pH 7.4 to a final assay concentration of 5 μg protein/well. For inhibition experiments, membranes were incubated with [^3H]SR142801 at a concentration equal to KD value of radioligand and 10 concentrations of the inhibitory compound (0.0003-10 μM) (in a total reaction volume of 500 μl) for 75 min at room temperature (RT). At the end of the incubation, membranes were filtered onto unitfilter (96-well white microplate with bonded GF/C filter preincubated 1 h in 0.3% PEI+0.3% BSA, Packard BioScience, Meriden, Conn.) with a Filtermate 196 harvester (Packard BioScience) and washed 4 times with ice-cold 50 mM Tris-HCl, pH 7.4 buffer. Nonspecific binding was measured in the presence of 10 μM SB222200 for both radioligands. The radioactivity on the filter was counted (5 min) on a Packard Top-count microplate scintillation counter with quenching correction after addition of 45 μl of microscint 40 (Can berra Packard S. A., Zurich, Switzerland) and shaking for 1 h. Inhibition curves were fitted according to the Hill equation: y=100/(1+(x/IC50)^nH), where nH=slope factor using Excel-fit 4 software (Microsoft). IC50 values were derived from the inhibition curve and the affinity constant (Ki) values were calculated using the Cheng-Prussoff equation Ki=IC50/(1+[L]/KD) where [L] is the concentration of radioligand and KD is its dissociation constant at the receptor, derived from the saturation isotherm. All experiments were performed in duplicate and the mean±standard error (SEM) of the individual Ki values was calculated.

human NK3 receptor, sequence (P29371 whole entry): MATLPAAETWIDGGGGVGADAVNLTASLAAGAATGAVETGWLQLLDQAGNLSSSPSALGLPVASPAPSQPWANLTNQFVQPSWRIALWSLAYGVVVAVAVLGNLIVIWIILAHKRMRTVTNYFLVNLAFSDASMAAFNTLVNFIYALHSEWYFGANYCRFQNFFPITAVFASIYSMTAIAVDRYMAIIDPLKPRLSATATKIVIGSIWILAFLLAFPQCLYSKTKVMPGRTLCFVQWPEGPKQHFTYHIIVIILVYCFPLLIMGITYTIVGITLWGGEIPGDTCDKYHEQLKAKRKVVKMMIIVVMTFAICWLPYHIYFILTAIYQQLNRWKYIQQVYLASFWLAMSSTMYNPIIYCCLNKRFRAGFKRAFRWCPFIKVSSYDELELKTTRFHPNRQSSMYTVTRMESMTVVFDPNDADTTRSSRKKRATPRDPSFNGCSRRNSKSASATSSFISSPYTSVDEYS

Ki [µM]	Structure (SMILES)
0.0043	Cc1noc(-c2ccc(C(=O)N3C[C@H](c4ccc(Cl)cc4)[C@@](C)(COc4ccc(Cl)cn4)C3)cc2)n1 (racemic) [Example 7, [(3RS,4RS)-4-(4-Chloro-phenyl)-3-(5-chloro-pyridin-2-yloxymethyl)-3-methyl-pyrrolidin-1-yl]-[4-(3-methyl-[1,2,4]oxadiazol-5-yl)-phenyl]-methanone]
0.015	C[C@]1(COc2ccc(Cl)cn2)CN(C(=O)C2CCN(C3CCCCC3)CC2)C[C@@H]1c1ccc(Cl)cc1 (racemic) [Example 14, [(3RS,4RS)-4-(4-Chloro-phenyl)-3-(5-chloro-pyridin-2-yloxymethyl)-3-methyl-pyrrolidin-1-yl]-(1-cyclohexyl-piperidin-4-yl)-methanone]
0.0087	CC(C)C(=O)N1CCC(C(=O)N2C[C@H](c3ccc(Cl)cc3)[C@@](C)(COc3ccc(Cl)cn3)C2)CC1 (racemic) [Example 13, 1-{4-[(3RS,4RS)-4-(4-Chloro-phenyl)-3-(5-chloro-pyridin-2-yloxymethyl)-3-methyl-pyrrolidine-1-carbonyl]-piperidin-1-yl}-2-methyl-propan-1-one]
0.0874	C[C@]1(COc2ccc(Cl)cn2)CN(C(=O)C2CCOCC2)C[C@@H]1c1ccc(Cl)cc1 (racemic) [Example 10, [(3RS,4RS)-4-(4-Chloro-phenyl)-3-(5-chloro-pyridin-2-yloxymethyl)-3-methyl-pyrrolidin-1-yl]-(tetrahydro-pyran-4-yl)-methanone]
0.0072	CC1(C(=O)N2CCC(C(=O)N3C[C@H](c4ccc(Cl)cc4)[C@@](C)(COc4ccc(Cl)cn4)C3)CC2)CC1 (racemic) [Example 3, [(3RS,4RS)-4-(4-Chloro-phenyl)-3-(5-chloro-pyridin-2-yloxymethyl)-3-methyl-pyrrolidin-1-yl]-[1-(1-methyl-cyclopropanecarbonyl)-piperidin-4-yl]-methanone]
0.0352	C[C@]1(COc2ccc(Cl)cn2)CN(C(=O)c2ccc(-n3cccn3)nc2)C[C@@H]1c1ccc(Cl)cc1 (racemic) [Example 6, [(3RS,4RS)-4-(4-Chloro-phenyl)-3-(5-chloro-pyridin-2-yloxymethyl)-3-methyl-pyrrolidin-1-yl]-(6-pyrazol-1-yl-pyridin-3-yl)-methanone]
0.0618	C[C@]1(COc2ccc(Cl)cn2)CN(C(=O)c2ccnc(Cl)c2)C[C@@H]1c1ccc(Cl)cc1 (racemic) [Example 5]
0.0451	C[C@]1(COc2ccc(Cl)cn2)CN(C(=O)c2ccc(C#N)cc2)C[C@@H]1c1ccc(Cl)cc1 (racemic) [Example 8, 4-[(3RS,4RS)-4-(4-Chloro-phenyl)-3-(5-chloro-pyridin-2-yloxymethyl)-3-methyl-pyrrolidine-1-carbonyl]-benzonitrile]
0.0478	C[C@]1(COc2ccc(Cl)cn2)CN(C(=O)N2CCN(S(C)(=O)=O)CC2)C[C@@H]1c1ccc(Cl)cc1 (racemic) [Example 2, [(3RS,4RS)-4-(4-Chloro-phenyl)-3-(5-chloro-pyridin-2-yloxymethyl)-3-methyl-pyrrolidin-1-yl]-(4-methanesulfonyl-piperazin-1-yl)-methanone]
0.0225	CC(C)CN1CCC(C(=O)N2C[C@H](c3ccc(Cl)cc3)[C@@](C)(COc3ccc(Cl)cn3)C2)CC1 (racemic) [Example 12, [(3RS,4RS)-4-(4-Chloro-phenyl)-3-(5-chloro-pyridin-2-yloxymethyl)-3-methyl-pyrrolidin-1-yl]-(1-isobutyl-piperidin-4-yl)-methanone]
0.0106	CC(=O)N1CCC(C(=O)N2C[C@H](c3ccc(Cl)cc3)[C@@](C)(COc3ccc(Cl)cn3)C2)CC1 (racemic) [Example 11, 1-{4-[(3RS,4RS)-4-(4-Chloro-phenyl)-3-(5-chloro-pyridin-2-yloxymethyl)-3-methyl-pyrrolidine-1-carbonyl]-piperidin-1-yl}-ethanone]
0.0563	COc1ccc(C(=O)N2C[C@H](c3ccc(Cl)cc3)[C@@](C)(COc3ccc(Cl)cn3)C2)cn1 (racemic) [Example 9, [(3RS,4RS)-4-(4-Chloro-phenyl)-3-(5-chloro-pyridin-2-yloxymethyl)-3-methyl-pyrrolidin-1-yl]-(6-methoxy-pyridin-3-yl)-methanone]

same assay, conditions: membranes from HEK293 cells transiently expressing recombinant human NK3 receptor; [3H]SR142801 radioligand; second half of table, head prints nM; read-out: Ki (nM) hNK3

Ki [µM]	Structure (SMILES)
0.0112	C[C@]1(COc2ccc(Cl)cn2)CN(C(=O)C2CCN(c3ccc(F)cn3)CC2)C[C@@H]1c1ccc(Cl)cc1 (racemic) [Example 19, [(3RS,4RS)-4-(4-Chloro-phenyl)-3-(5-chloro-pyridin-2-yloxymethyl)-3-methyl-pyrrolidin-1-yl]-(5′-fluoro-3,4,5,6-tetrahydro-2H-[1,2′]bipyridinyl-4-yl)-methanone]
0.0931	C[C@]1(COc2ccc(Cl)cn2)CN(C(=O)c2ccc(N3CCCCC3=O)cc2)C[C@@H]1c1ccc(Cl)cc1 (racemic) [Example 27, 1-{4-[(3RS,4RS)-4-(4-Chloro-phenyl)-3-(5-chloro-pyridin-2-yloxymethyl)-3-methyl-pyrrolidine-1-carbonyl]-phenyl}-piperidin-2-one]
0.015	Cc1ccc(N2CCC(C(=O)N3C[C@H](c4ccc(Cl)cc4)[C@@](C)(COc4ccc(Cl)cn4)C3)CC2)nc1 (racemic) [Example 15, [(3RS,4RS)-4-(4-Chloro-phenyl)-3-(5-chloro-pyridin-2-yloxymethyl)-3-methyl-pyrrolidin-1-yl]-(5′-methyl-3,4,5,6-tetrahydro-2H-[1,2′]bipyridinyl-4-yl)-methanone]
0.0193	C[C@]1(COc2ccc(Cl)cn2)CN(C(=O)C2CCN(c3ccc(Cl)cn3)CC2)C[C@@H]1c1ccc(Cl)cc1 (racemic) [Example 20, [(3RS,4RS)-4-(4-Chloro-phenyl)-3-(5-chloro-pyridin-2-yloxymethyl)-3-methyl-pyrrolidin-1-yl]-(5′-chloro-3,4,5,6-tetrahydro-2H-[1,2′]bipyridinyl-4-yl)-methanone]
0.0044	C[C@]1(COc2ccc(Cl)cn2)CN(C(=O)C2CCN(c3ccc(C#N)nc3)CC2)C[C@@H]1c1ccc(Cl)cc1 (racemic) [Example 25, 4-[(3RS,4RS)-4-(4-Chloro-phenyl)-3-(5-chloro-pyridin-2-yloxymethyl)-3-methyl-pyrrolidine-1-carbonyl]-3,4,5,6-tetrahydro-2H-[1,3′]bipyridinyl-6′-carbonitrile]
0.0272	C[C@]1(COc2ccc(Cl)cn2)CN(C(=O)C2CCN(c3ccc(C(F)(F)F)cn3)CC2)C[C@@H]1c1ccc(Cl)cc1 (racemic) [Example 22, [(3RS,4RS)-4-(4-Chloro-phenyl)-3-(5-chloro-pyridin-2-yloxymethyl)-3-methyl-pyrrolidin-1-yl]-(5′-trifluoromethyl-3,4,5,6-tetrahydro-2H-[1,2′]bipyridinyl-4-yl)-methanone]
0.039	C[C@]1(COc2ccc(Cl)cn2)CN(C(=O)c2ccc(C#N)nc2)C[C@@H]1c1ccc(Cl)cc1 (racemic) [Example 21, 5-[(3RS,4RS)-4-(4-Chloro-phenyl)-3-(5-chloro-pyridin-2-yloxymethyl)-3-methyl-pyrrolidine-1-carbonyl]-pyridine-2-carbonitrile]
0.0059	CC(=O)c1ccc(N2CCC(C(=O)N3C[C@H](c4ccc(Cl)cc4)[C@@](C)(COc4ccc(Cl)cn4)C3)CC2)nc1 (racemic) [Example 18, 1-{4-[(3RS,4RS)-4-(4-Chloro-phenyl)-3-(5-chloro-pyridin-2-yloxymethyl)-3-methyl-pyrrolidine-1-carbonyl]-3,4,5,6-tetrahydro-2H-[1,2′]bipyridinyl-5′-yl}-ethanone]
0.0037	C[C@]1(COc2ccc(Cl)cn2)CN(C(=O)C2CCN(c3ccc(C#N)cn3)CC2)C[C@@H]1c1ccc(Cl)cc1 (racemic) [Example 16, 4-[(3RS,4RS)-4-(4-Chloro-phenyl)-3-(5-chloro-pyridin-2-yloxymethyl)-3-methyl-pyrrolidine-1-carbonyl]-3,4,5,6-tetrahydro-2H-[1,2′]bipyridinyl-5′-carbonitrile]
0.0114	COc1ccc(N2CCC(C(=O)N3C[C@H](c4ccc(Cl)cc4)[C@@](C)(COc4ccc(Cl)cn4)C3)CC2)nn1 [Example 26, [(3R,4R)-4-(4-Chloro-phenyl)-3-(5-chloro-pyridin-2-yloxymethyl)-3-methyl-pyrrolidin-1-yl]-[1-(6-methoxy-pyridazin-3-yl)-piperidin-4-yl]-methanone]
0.0023	C[C@]1(COc2ccc(Cl)cn2)CN(C(=O)C2CCN(c3ccc(C#N)cc3)CC2)C[C@@H]1c1ccc(Cl)cc1 (racemic) [Example 17, 4-{4-[(3RS,4RS)-4-(4-Chloro-phenyl)-3-(5-chloro-pyridin-2-yloxymethyl)-3-methyl-pyrrolidine-1-carbonyl]-piperidin-1-yl}-benzonitrile]

From patent US8507535B2 (Hoffmann-La Roche Inc., priority 2010, dated 2013)
